Experimental data published in patent US4703050A, “Methods of inducing neuron protective activity” (Roussel Uclaf, priority 1985, dated 1987).

Assays:
Type in all cases: in vivo
[1] = Asphysic Anoxemia Test (electroencephalogram survival); conditions: mice, curare, 2 mg/kg, respiratory assistance stopped; for increase in the time necessary for the electroencephalogram to disappear: vs control animals
Description: Curare was administered to mice which were placed under assisted respiration and the products to be tested were administered at a dose of 2 mg/kg, and the respiratory assistance was stopped.

[2] = system: enolase γγ; test: Enolase Test (kainic acid-induced neuron lesion); conditions: mice, 1 mg/kg intraperitoneally
Description: Injured cerebral cells release enolase γγ which is a specific indicator of neuron lesion. In this test, the lesions were induced in the mice by sub-cutaneous injection of 35 mg/kg of kainic acid.

[3] = Hypobaric Anoxemia Test; conditions: male mice, 15 min before 190 mm Hg, vs control animals
Description: Male mice weighing 20-22 g were used having eaten nothing for 5 hours and they were divided into groups of 10 animals. The product to be tested was administered to the animals subcutaneously. […] The increase in the survival time, expressed as a percentage was calculated for the treated animals in comparison with control animals submitted to the same conditions.

[4] = Acute Toxicity Study (LD0); conditions: mice, oral administration
Excerpt: The result obtained was LD0 in mg/kg =200.

Row | SMILES | electro-encephalographic survival [1] | increase in the time necessary for the electroencephalogram to disappear [1] | decrease in the serous concentration of enolase ([2]; 1 hour before 35 mg/kg s.c. kainic acid) | protection of cerebral cells in the affected area ([2]; 1 hour before kainic acid) | % Increase in the survival time ([3]; 1 mg/kg subcutaneously) | % Increase in the survival time ([3]; 10 mg/kg subcutaneously) | LD0 (maximum dose which did not cause mortality in 8 days) [4]
1 | CSC[C@@H]1C=C2c3cccc4[nH]cc(c34)C[C@H]2N(C)C1 [Product B, 6-methyl-8β-methylthiomethyl-9,10-didehydroergoline] | prolong the electro-encephalographic survival | 11% |  |  |  |  | 
2 | CSC[C@@H]1C[C@@H]2c3cccc4[nH]cc(c34)C[C@H]2N(C)C1 [Product A, 6-methyl-8β-(methylthiomethyl)-ergoline] | prolong the electro-encephalographic survival | 10% | 29% | protected the cerebral cells in the affected area | 12% | 57% | 200 mg/kg
